Test results published in ChEMBL document CHEMBL1125393, “5-(Aminomethyl)-3-aryldihydrofuran-2(3H)-ones, a new class of monoamine oxidase-B inactivators” (J Med Chem, 1992).

Experiments:
[1] = molecular target: T1, Amine oxidase [flavin-containing] B (Bos taurus, UniProt P56560); assay: Inhibitory constant against beef liver mitochondrial monoamine oxidase-B (MAO-B)
T1 sequence (P56560 whole entry): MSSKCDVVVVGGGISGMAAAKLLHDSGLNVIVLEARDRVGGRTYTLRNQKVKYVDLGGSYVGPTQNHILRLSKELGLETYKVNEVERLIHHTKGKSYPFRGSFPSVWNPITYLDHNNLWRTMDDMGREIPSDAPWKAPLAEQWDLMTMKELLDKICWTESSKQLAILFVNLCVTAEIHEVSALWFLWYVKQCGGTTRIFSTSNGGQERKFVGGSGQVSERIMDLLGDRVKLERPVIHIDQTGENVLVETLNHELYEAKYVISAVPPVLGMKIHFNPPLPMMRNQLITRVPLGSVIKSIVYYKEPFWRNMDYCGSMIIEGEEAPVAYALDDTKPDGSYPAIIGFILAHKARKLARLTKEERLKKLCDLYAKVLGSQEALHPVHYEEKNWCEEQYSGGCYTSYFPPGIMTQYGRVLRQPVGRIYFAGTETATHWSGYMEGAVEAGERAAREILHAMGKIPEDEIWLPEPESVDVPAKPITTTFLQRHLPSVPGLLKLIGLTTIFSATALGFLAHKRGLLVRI

[2] = molecular target: T1, Amine oxidase [flavin-containing] B; assay: Inactivation constant against beef liver mitochondrial monoamine oxidase-B (MAO-B); settings: cattle

Structure (SMILES)	Ki [1] [mM]	kinact [2] [s⁻¹]
COc1ccc(N2CC(CN)OC2=O)cc1 (stereo not given)	12.5	0.0133
COc1ccc([C@H]2C[C@@H](CN)OC2=O)cc1	6.67	0.074
COc1ccc([C@@H]2C[C@@H](CN)OC2=O)cc1	18.2	0.383

The next compounds have a lower Ki [1] than those just listed; values first:

Ki [1] [mM]	kinact [2] [s⁻¹]	Structure (SMILES)
5.1	0.0357	NC[C@@H]1C[C@@H](c2ccccc2)C(=O)O1
4.2	0.0428	NC[C@@H]1C[C@H](c2ccccc2)C(=O)O1
